# Source: paper PMC6269736, “Antimalarial Activity of 4-Metoxychalcones: Docking Studies as Falcipain/Plasmepsin Inhibitors, ADMET and Lipophilic Efficiency Analysis to Identify a Putative Oral Lead Candidate” (Molecules, 2013)
# Like-named read-outs stand apart in the source and are kept apart here.
# Tests used:
# [1] = system: P. falciparum clone W2 (chloroquine-resistant); test: In vitro antiplasmodial activity, Giemsa-stained smear parasitaemia after 48 h; format: cell-based, Plasmodium falciparum; conditions: for IC50: Plasmodium falciparum; for SI (selectivity index): SI = LC50 HeLa/IC50 Plasmodium falciparum
# Procedure: The human red blood cells and plasma were ceded by the Fundação Hemominas-Hemonúcleo Divinópolis. The synchronization of the parasites was achieved by sorbitol treatment and parasitaemia was determined microscopically in Giemsa-stained smears.
# Briefly, ring-stage parasites in sorbitol-synchronized blood cultures were added to 96-well culture plates with 2% parasitaemia and 2% haematocrit and then incubated with the test compounds. The compounds were diluted in complete media, from 10 mg/mL stock solutions in DMSO, at various concentrations (0.1–30 µM). After 48 h incubation, Giemsa-stained blood smears were taken for microscopic evaluation of parasitaemia. All experiments were performed in triplicate.
# in vitro = format: cell-based; conditions: human
# Procedure: The cytotoxicity of the compounds was assessed with the HeLa human cell line (cervix adenocarcinoma ATCC# CCl-2) using the MTT (3-(4,5-dimethylthiazol-2-yl)-2,5-diphenyltetrazolium bromide) (Sigma, St. Louis, MO, USA) colorimetric method. Briefly, the cells were plated in 96-well plates (1 × 10^5 cells/well) and incubated for 24 h at 37 °C in a humidified atmosphere with 5% CO2. After 24 h, the wells were washed with culture medium (RPMI + 10% inactivated fetal calf serum + 2 mM L-glutamine) and incubated with the compounds at various concentrations (0.05 to 500 µM). After 48 h incubation, the plates were treated with MTT. The colorimetric reading was performed in a microplate reader Spectramax M5e (Molecular Devices, Sunnyvale, CA, USA) at 550 nm. Cytotoxicity was scored as the percentage reduction in absorbance versus untreated control cultures. All experiments were performed in triplicate. […] The IC50 and LC50 values were calculated using OriginPro8.0 (OriginLab Corporation, Northampton, MA, USA) software. A selectivity index (SI), corresponding to the ratio between the cytotoxic and antiparasitic activities of each compound, was calculated as follows: SI = LC50 HeLa/IC50 Plasmodium falciparum
# [2] = P. falciparum W2, 48 h incubation, triplicate, mean ± spread, read-out: IC50, in vitro antiplasmodial activity
# [3] = P. falciparum W2, from IC50, read-out: pIC50 (converted)
Structure (SMILES),"IC50 [1, 2] [µM]","IC50 [1, 3] [µM]",SI (selectivity index) [1],CC50 at 48 h (in vitro) [µM],"IC50 ([1]; W2, 48 h, read-out: IC50, in vitro antiplasmodial activity) [µM]","IC50 ([1]; W2, read-out: pIC50 (converted)) [µM]"
COc1ccc(/C=C/C(=O)c2ccccc2)cc1S(=O)(=O)N1CCOCC1 [Compound 1a],2.06 ± 0.05,2.07,9.0,18.6 ± 1.26,–,–
COc1ccc(/C=C/C(=O)c2ccccc2)cc1S(=O)(=O)Nc1ccccc1 [Compound 1c],2.03 ± 0.28,2.03,5.7,11.5 ± 0.23,–,–
"CCN(CC)CCCC(C)Nc1ccnc2cc(Cl)ccc12 (centres unmarked) [CQ, chloroquine, reference compound]",–,–,–,–,0.45 ± 0.04,0.454
CCN(CC)S(=O)(=O)c1cc(/C=C/C(=O)c2ccccc2)ccc1OC [Compound 1g],11 ± 0.57,11,1.9,20.7 ± 1.6,–,–
COc1ccc(/C=C/C(=O)c2ccccc2)cc1S(=O)(=O)Nc1ccc(Cl)cc1 [Compound 1e],2.83 ± 0.21,2.82,3.7,10.5 ± 2.27,–,–
COc1ccc(/C=C/C(=O)c2ccccc2)cc1S(=O)(=O)N1CCCC1 [Compound 1i],2.07 ± 0.22,2.07,4.4,9.18 ± 1.51,–,–
COc1ccc(NS(=O)(=O)c2cc(/C=C/C(=O)c3ccccc3)ccc2OC)cc1 [Compound 1d],3.64 ± 0.4,3.64,3.0,11.1 ± 1.96,–,–
COc1ccc(/C=C/C(=O)c2ccccc2)cc1S(=O)(=O)NCc1ccccc1 [Compound 1h],1.96 ± 0.02,1.96,4.8,9.42 ± 2.09,–,–
COc1ccc(/C=C/C(=O)c2ccccc2)cc1S(=O)(=O)N(C)C [Compound 1b],5.79 ± 0.12,5.79,3.6,20.7 ± 1.62,–,–
COc1ccc(/C=C/C(=O)c2ccccc2)cc1S(=O)(=O)Nc1ccc(Cl)c(Cl)c1 [Compound 1f],4.33 ± 0.06,4.33,4.4,19 ± 0.43,–,–
